Test results from patent publication US20120029187A1, “HALOALKYLSULFONANILIDE DERIVATIVE” (Nissan Chemical Industries, Ltd., priority 2009, published 2012).

Columns and labels:
Assay type in all cases: in vivo
transplanted rice = test: Test Example 1: preemergence treatment under submerged conditions, effect on crop; settings: dose 2.52 g/a
In short: (§1)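 Flooded-paddy preemergence assay; EC diluted with water, surface-applied at weed seeding; doses g/a; rice transplanted at 2.5 leaves; 0–5 mortality score after 3 weeks.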

ducksalad [1] = test: Test Example 2: herbicidal effects during the vegetation period under submerged conditions; settings: treatment during the vegetation period under submerged conditions; dose 2.52 g/a
In short: (§2)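 Barnyardgrass, bulrush and ducksalad were co-sown in alluvial soil flooded to 4 cm and grown in a greenhouse at 25 to 30° C. At the 1- or 2-leaf stage, water-diluted emulsifiable concentrates went onto the water surface at set doses (g/a). Herbicidal effect was scored three weeks later on a graded scale.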

bulrush [2] = test: as above; settings: treatment during the vegetation period under submerged conditions; dose 2.52 g/a
In short: as §2

barnyardgrass [3] = test: as above; settings: treatment during the vegetation period under submerged conditions; dose 2.52 g/a
In short: as §2

ducksalad [4] = test: Test Example 1: herbicidal effects in preemergence treatment under submerged conditions; settings: dose 2.52 g/a
In short: as §1

bulrush [5] = test: as above; settings: dose 2.52 g/a
In short: as §1

barnyardgrass [6] = test: as above; settings: dose 2.52 g/a
In short: as §1

Italian ryegrass [7] = test: Test Example 4: herbicidal effect in foliage treatment; settings: dose 3.2 g/a
In short: (§3)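 Weeds and crops sown in sterilized diluvial soil under ~1.5 cm cover and grown in greenhouse at 25 to 30° C. At 14 days, water-diluted emulsifiable concentrate sprayed onto foliage at set doses (g/a); herbicidal effect scored on a rating scale three weeks after application.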

redroot pigweed [8] = test: as above; settings: dose 3.2 g/a
In short: as §3

beadstraw [9] = test: as above; settings: dose 3.2 g/a
In short: as §3

giant foxtail [10] = test: as above; settings: dose 3.2 g/a
In short: as §3

common lambsquater [11] = test: as above; settings: dose 3.2 g/a
In short: as §3

velvetleaf [12] = test: as above; settings: dose 3.2 g/a
In short: as §3

barnyardgrass [13] = test: as above; settings: dose 3.2 g/a
In short: as §3

large crabgrass [14] = test: as above; settings: dose 3.2 g/a
In short: as §3

common chickweed [15] = test: as above; settings: dose 3.2 g/a
In short: as §3

posumbu knotweed [16] = test: as above; settings: dose 3.2 g/a
In short: as §3

common ragweed [17] = test: as above; settings: dose 3.2 g/a
In short: as §3

water foxtail [18] = test: as above; settings: dose 3.2 g/a
In short: as §3

Italian ryegrass [19] = test: Test Example 3: herbicidal effects in soil treatment; settings: dose 3.2 g/a
In short: (§4)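 Seeds were sown in sterilized diluvial soil and covered with about 1.5 cm of soil. Compounds, formulated as emulsifiable concentrates and diluted with water, were sprayed evenly over the soil surface at set doses in g/a. Herbicidal effect was scored on a rating scale three weeks later.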

redroot pigweed [20] = test: as above; settings: dose 3.2 g/a
In short: as §4

beadstraw [21] = test: as above; settings: dose 3.2 g/a
In short: as §4

giant foxtail [22] = test: as above; settings: dose 3.2 g/a
In short: as §4

common lambsquater [23] = test: as above; settings: dose 3.2 g/a
In short: as §4

velvetleaf [24] = test: as above; settings: dose 3.2 g/a
In short: as §4

barnyardgrass [25] = test: as above; settings: dose 3.2 g/a
In short: as §4

large crabgrass [26] = test: as above; settings: dose 3.2 g/a
In short: as §4

common chickweed [27] = test: as above; settings: dose 3.2 g/a
In short: as §4

posumbu knotweed [28] = test: as above; settings: dose 3.2 g/a
In short: as §4

common ragweed [29] = test: as above; settings: dose 3.2 g/a
In short: as §4

water foxtail [30] = test: as above; settings: dose 3.2 g/a
In short: as §4

[31] = three weeks after the application

In the case of `CC1(C)CC(=O)N(Cc2ccccc2N(C(=O)OCCCl)S(=O)(=O)C(F)(F)F)CO1` [II-28], the “a: transplanted rice, effect on crop (evaluation scale 0-5)” value (transplanted rice) is reported as 4 (mortality of at least 70% and less than 90%), the “C: ducksalad, herbicidal effect (evaluation scale 0-5)” value (“C: ducksalad, herbicidal effect” below) (ducksalad [1]) is reported as 5 (mortality of 90% or above (nearly complete death)) and the “B: bulrush, herbicidal effect (evaluation scale 0-5)” value (“B: bulrush, herbicidal effect” for short) (bulrush [2]) is reported as 5 (mortality of 90% or above (nearly complete death)). The “A: barnyardgrass, herbicidal effect (evaluation scale 0-5)” value (barnyardgrass [3]) was 5 (mortality of 90% or above (nearly complete death)), the “C: ducksalad, herbicidal effect” value (ducksalad [4]) was 5 (mortality of 90% or above (nearly complete death)) and the “B: bulrush, herbicidal effect” value (bulrush [5]) was 5 (mortality of 90% or above (nearly complete death)). For the same molecule, the “A: barnyardgrass, herbicidal effect (evaluation scale 0-5)” value (barnyardgrass [6]) was 5 (mortality of 90% or above (nearly complete death)), the “H: Italian ryegrass, herbicidal effect” value (Italian ryegrass [7]; three weeks after application) was 3 (mortality of at least 40% and less than 70%) and the “K: redroot pigweed, herbicidal effect” value (redroot pigweed [8]; three weeks after application) was 0 (mortality of less than 5% (almost ineffective)). The “O: beadstraw, herbicidal effect” value (beadstraw [9]; three weeks after application) was 5 (mortality of 90% or above (nearly complete death)), the “E: giant foxtail, herbicidal effect” value (giant foxtail [10]; three weeks after application) was 4 (mortality of at least 70% and less than 90%) and the “L: common lambsquater, herbicidal effect” value (common lambsquater [11]; three weeks after application) was 1 (mortality of at least 5% and less than 20%). For the same molecule, the “I: velvetleaf, herbicidal effect” value (velvetleaf [12]; three weeks after application) was 4 (mortality of at least 70% and less than 90%), the “A: barnyardgrass, herbicidal effect” value (barnyardgrass [13]; three weeks after application) was 5 (mortality of 90% or above (nearly complete death)) and the “D: large crabgrass, herbicidal effect” value (large crabgrass [14]; three weeks after application) was 4 (mortality of at least 70% and less than 90%). The “N: common chickweed, herbicidal effect” value (common chickweed [15]; three weeks after application) was 4 (mortality of at least 70% and less than 90%), the “M: posumbu knotweed, herbicidal effect” value (posumbu knotweed [16]; three weeks after application) was 4 (mortality of at least 70% and less than 90%) and the “J: common ragweed, herbicidal effect” value (common ragweed [17]; three weeks after application) was 3 (mortality of at least 40% and less than 70%). For the same molecule, the “G: water foxtail, herbicidal effect” value (water foxtail [18]; three weeks after application) was 5 (mortality of 90% or above (nearly complete death)), the “H: Italian ryegrass, herbicidal effect (evaluation scale 0-5)” value (Italian ryegrass [19]) was 2 (mortality of at least 20% and less than 40%) and the “K: redroot pigweed, herbicidal effect (evaluation scale 0-5)” value (redroot pigweed [20]) was 0 (mortality of less than 5% (almost ineffective)). For the same molecule, the “O: beadstraw, herbicidal effect (evaluation scale 0-5)” value (beadstraw [21]) was 5 (mortality of 90% or above (nearly complete death)), the “E: giant foxtail, herbicidal effect (evaluation scale 0-5)” value (giant foxtail [22]) was 5 (mortality of 90% or above (nearly complete death)) and the “L: common lambsquater, herbicidal effect (evaluation scale 0-5)” value (common lambsquater [23]) was 0 (mortality of less than 5% (almost ineffective)). For the same molecule, the “I: velvetleaf, herbicidal effect (evaluation scale 0-5)” value (velvetleaf [24]) was 4 (mortality of at least 70% and less than 90%), the “A: barnyardgrass, herbicidal effect (evaluation scale 0-5)” value (barnyardgrass [25]) was 5 (mortality of 90% or above (nearly complete death)) and the “D: large crabgrass, herbicidal effect (evaluation scale 0-5)” value (large crabgrass [26]) was 5 (mortality of 90% or above (nearly complete death)). The “N: common chickweed, herbicidal effect (evaluation scale 0-5)” value (common chickweed [27]) was 4 (mortality of at least 70% and less than 90%), the “M: posumbu knotweed, herbicidal effect (evaluation scale 0-5)” value (posumbu knotweed [28]) was 5 (mortality of 90% or above (nearly complete death)) and the “J: common ragweed, herbicidal effect (evaluation scale 0-5)” value (common ragweed [29]) was 4 (mortality of at least 70% and less than 90%). For the same molecule, the “G: water foxtail, herbicidal effect (evaluation scale 0-5)” value (water foxtail [30]) was 5 (mortality of 90% or above (nearly complete death)).
In the case of `CCC1CON(Cc2ccccc2NS(=O)(=O)C(F)(F)F)C(=O)O1` (centres unmarked) [III-5], the “a: transplanted rice, effect on crop (evaluation scale 0-5)” value (transplanted rice) is reported as 0 (mortality of less than 5% (almost ineffective)), the “C: ducksalad, herbicidal effect” value (ducksalad [1]) is reported as 5 (mortality of 90% or above (nearly complete death)) and the “B: bulrush, herbicidal effect” value (bulrush [2]) is reported as 5 (mortality of 90% or above (nearly complete death)). For the same molecule, the “A: barnyardgrass, herbicidal effect (evaluation scale 0-5)” value (barnyardgrass [3]) was 5 (mortality of 90% or above (nearly complete death)), the “C: ducksalad, herbicidal effect” value (ducksalad [4]) was 5 (mortality of 90% or above (nearly complete death)) and the “B: bulrush, herbicidal effect” value (bulrush [5]) was 5 (mortality of 90% or above (nearly complete death)). The “A: barnyardgrass, herbicidal effect (evaluation scale 0-5)” value (barnyardgrass [6]) was 5 (mortality of 90% or above (nearly complete death)), the “H: Italian ryegrass, herbicidal effect” value (Italian ryegrass [7]; [31]) was 1 (mortality of at least 5% and less than 20%) and the “K: redroot pigweed, herbicidal effect” value (redroot pigweed [8]; [31]) was 0 (mortality of less than 5% (almost ineffective)). For the same molecule, the “O: beadstraw, herbicidal effect” value (beadstraw [9]; [31]) was 3 (mortality of at least 40% and less than 70%), the “E: giant foxtail, herbicidal effect” value (giant foxtail [10]; [31]) was 3 (mortality of at least 40% and less than 70%) and the “L: common lambsquater, herbicidal effect” value (common lambsquater [11]; [31]) was 3 (mortality of at least 40% and less than 70%). The “I: velvetleaf, herbicidal effect” value (velvetleaf [12]; [31]) was 3 (mortality of at least 40% and less than 70%), the “A: barnyardgrass, herbicidal effect” value (barnyardgrass [13]; [31]) was 5 (mortality of 90% or above (nearly complete death)) and the “D: large crabgrass, herbicidal effect” value (large crabgrass [14]; [31]) was 0 (mortality of less than 5% (almost ineffective)). For the same molecule, the “N: common chickweed, herbicidal effect” value (common chickweed [15]; [31]) was 3 (mortality of at least 40% and less than 70%), the “M: posumbu knotweed, herbicidal effect” value (posumbu knotweed [16]; [31]) was 0 (mortality of less than 5% (almost ineffective)) and the “J: common ragweed, herbicidal effect” value (common ragweed [17]; [31]) was 4 (mortality of at least 70% and less than 90%). The “G: water foxtail, herbicidal effect” value (water foxtail [18]; [31]) was 5 (mortality of 90% or above (nearly complete death)), the “herbicidal effect, H: Italian ryegrass” value (Italian ryegrass [19]) was 5 (mortality of 90% or above (nearly complete death)) and the “herbicidal effect, K: redroot pigweed” value (redroot pigweed [20]) was 0 (mortality of less than 5% (almost ineffective)). The “herbicidal effect, O: beadstraw” value (beadstraw [21]) was 4 (mortality of at least 70% and less than 90%), the “herbicidal effect, E: giant foxtail” value (giant foxtail [22]) was 5 (mortality of 90% or above (nearly complete death)) and the “herbicidal effect, L: common lambsquater” value (common lambsquater [23]) was 5 (mortality of 90% or above (nearly complete death)). For the same molecule, the “herbicidal effect, I: velvetleaf” value (velvetleaf [24]) was 5 (mortality of 90% or above (nearly complete death)), the “herbicidal effect, A: barnyardgrass” value (barnyardgrass [25]) was 5 (mortality of 90% or above (nearly complete death)) and the “herbicidal effect, D: large crabgrass” value (large crabgrass [26]) was 5 (mortality of 90% or above (nearly complete death)). For the same molecule, the “herbicidal effect, N: common chickweed” value (common chickweed [27]) was 5 (mortality of 90% or above (nearly complete death)), the “herbicidal effect, M: posumbu knotweed” value (posumbu knotweed [28]) was 4 (mortality of at least 70% and less than 90%) and the “herbicidal effect, J: common ragweed” value (common ragweed [29]) was 4 (mortality of at least 70% and less than 90%). The “herbicidal effect, G: water foxtail” value (water foxtail [30]) was 5 (mortality of 90% or above (nearly complete death)).
